No end group written: not given here.

What is called Kd is the free concentration of one partner at which half of the binding sites on the other are occupied at equilibrium, for simple one-to-one binding.

For this experiment, the system named is KB cells. The experiment in a line: Folate conjugate binding curves in KB cells by flow cytometry. The conditions noted are these: KB cells incubated 1 hour at 4° C. with increasing concentrations of conjugate, concentrations normalized via fluorescence, read-out: Kd (folate conjugate binding curve). Here is the method:
KB cells were incubated for 1 hour at 4° C. with increasing concentrations of OTL38, BBM1, BBM2, or BBM3 in staining buffer, washed three times with staining buffer, and then analyzed via flow cytometry.
KB cells were incubated for 1 hour at 4° C. with increasing concentrations of OTL38, BBM1, BBM2 or BBM3 in staining buffer, washed three times with staining buffer, suspended in phosphate-buffered saline, and then analyzed via flow cytometry. Concentrations of all conjugates were normalized via fluorescence.
(In general: A flow cytometer gives signals particle by particle.)
For `CCCCCN1c2ccc(C)cc2C(C)(C)C1CCc1cccc(CCC2N(CCCCC)c3ccc(C)cc3C2(C)C)c1Oc1ccc(CCNC(=O)CCN2C(=O)CC(SCC(NC(=O)C(CCCCN)NC(=O)[C@@H](NC(=O)C(CCCC)NC(=O)CCC(NC(=O)c3ccc(NCc4cnc5nc(N)nc(O)c5n4)cc3)C(=O)O)C(C)C)C(=O)O)C2=O)cc1` (stereo partly drawn) [BBM1], the Kd was 12.3 nM.

With OTL38 [reference compound], the Kd is 6.7 nM.

As to “BBM2: Folate dye conjugate; a peptide with the sequence M-V-K-G-Y-G-K-C (MVKGYGKC; also: folate dye conjugate (site not given here))”, the dissociation constant (Kd) was 29.6 nM.

The values are drawn from patent publication US20240335570A1, “FOLATE RECEPTOR-TARGETED CONJUGATES WITH BRUSH BORDER MEMBRANE ENZYME-CLEAVABLE LINKERS AND METHODS OF USE IN IMAGING AND TREATING CANCER” (PURDUE RESEARCH FOUNDATION, priority 2021, published 2024).
